Laboratory results taken from publication PMC9437101, “Curcumin-based-fluorescent probes targeting ALDH1A3 as a promising tool for glioblastoma precision surgery and early diagnosis” (Communications Biology, 2022).
Values joined by “and” are separate entries in the source; they are usually repeats but may differ in a detail not shown here. Equal values may be shown once.

Assays:
Experiment in all cases: Fluorescence signal change of probe with recombinant enzyme (cross reaction assay)
Format in all cases: binding
ALDH1A1 = target: T1, ALDH1A1 (Homo sapiens, UniProt P00352); conditions: probe 10 μM; for probe fluorescence intensity (normalized): ALDH1A1 100 μM
T1 construct: E. coli BL21 (DE3) were transformed with the full-length expression vector of each isoform; His-tag; made in house; host or cells: E. coli BL21 (DE3)
T1 sequence (P00352 1-501): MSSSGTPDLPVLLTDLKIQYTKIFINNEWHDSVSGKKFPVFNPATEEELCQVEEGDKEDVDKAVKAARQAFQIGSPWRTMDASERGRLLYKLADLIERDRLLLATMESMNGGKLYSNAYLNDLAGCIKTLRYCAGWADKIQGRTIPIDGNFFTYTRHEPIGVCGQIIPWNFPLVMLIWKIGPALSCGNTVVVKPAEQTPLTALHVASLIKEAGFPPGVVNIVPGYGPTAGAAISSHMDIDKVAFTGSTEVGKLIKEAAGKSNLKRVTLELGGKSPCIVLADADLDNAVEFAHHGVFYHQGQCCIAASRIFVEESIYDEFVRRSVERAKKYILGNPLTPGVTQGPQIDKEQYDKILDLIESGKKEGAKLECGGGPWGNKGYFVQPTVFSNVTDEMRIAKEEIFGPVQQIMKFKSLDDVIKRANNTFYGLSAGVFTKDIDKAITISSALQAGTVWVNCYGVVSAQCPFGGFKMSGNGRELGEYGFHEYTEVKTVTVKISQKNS
From the text: (§1) All five fluorescent compounds were firstly characterized for their solubility in physiological buffer and for their absorbance values. We then performed a 3D analysis using a TECAN SPARK to simultaneously evaluate the excitation and the emission wavelengths, that were supposed to be similar to the curcumin ones[48]. […] For these reasons, we decided to continue the biochemical characterization on Probe 10 and 11 using the selected parameters (Fig. 2). The fluorescent signal changes for both molecules upon binding to the target, were firstly evaluated with recombinant human ALDH1A3. […] To better characterized our fluorescent compounds, we tested their potential cross-reactivity toward the other two isoforms of the ALDH1A subfamily. […] In addition, a wide range of biologically relevant analytes were tested at a concentration of 100 μM in complex with a fixed concentration of 10 μM of the probe (either probe 10 or probe 11), to make sure that no potential off-target signals could affect the analysis. More specifically, we checked if there were abnormal fluorescence signals that could have been contributed by the presence of biologically relevant compounds, (e.g., biologically relevant amino acids), to buffers and molecules commonly used in experimental procedures.
(§2) Based on the values obtained by the 3D analysis, a wide series of biomolecules directly used in the biochemical experiment, both in vitro and in vivo, and listed in Table 1, were tested in complex with a fixed concentration of 10 μM of both probes, to measure any possible cross reaction signal.

ALDH1A2 = target: T2, ALDH1A2 (Homo sapiens, UniProt O94788); conditions: probe 10 μM; for probe fluorescence intensity (normalized): ALDH1A2 100 μM
T2 construct: E. coli BL21 (DE3) were transformed with the full-length expression vector of each isoform; His-tag; made in house; host or cells: E. coli BL21 (DE3)
T2 sequence (O94788 1-518): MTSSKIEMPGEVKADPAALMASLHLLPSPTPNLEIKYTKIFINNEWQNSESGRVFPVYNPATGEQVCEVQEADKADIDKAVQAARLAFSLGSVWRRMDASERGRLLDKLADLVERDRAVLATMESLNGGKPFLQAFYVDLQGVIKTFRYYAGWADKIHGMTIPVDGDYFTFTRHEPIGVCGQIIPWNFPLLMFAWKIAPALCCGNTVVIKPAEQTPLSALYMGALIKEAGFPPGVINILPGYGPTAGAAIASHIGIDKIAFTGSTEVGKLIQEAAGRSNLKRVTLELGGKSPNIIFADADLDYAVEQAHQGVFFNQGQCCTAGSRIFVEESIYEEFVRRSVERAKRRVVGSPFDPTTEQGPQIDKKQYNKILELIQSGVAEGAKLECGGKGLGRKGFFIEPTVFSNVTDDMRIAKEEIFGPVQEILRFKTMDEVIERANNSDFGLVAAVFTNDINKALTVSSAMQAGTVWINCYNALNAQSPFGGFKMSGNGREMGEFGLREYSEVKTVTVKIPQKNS
From the text: as §1, §2

ALDH1A3 = target: T3, ALDH1A3 (Homo sapiens, UniProt P47895); conditions: probe 10 μM; for probe fluorescence intensity (normalized): ALDH1A3 100 μM; for increase in the intensity of the fluorescent signal on addition of ALDH1A3: vs probe alone
T3 construct: E. coli BL21 (DE3) were transformed with the full-length expression vector of each isoform; His-tag; made in house; host or cells: E. coli BL21 (DE3)
T3 sequence (P47895 1-512): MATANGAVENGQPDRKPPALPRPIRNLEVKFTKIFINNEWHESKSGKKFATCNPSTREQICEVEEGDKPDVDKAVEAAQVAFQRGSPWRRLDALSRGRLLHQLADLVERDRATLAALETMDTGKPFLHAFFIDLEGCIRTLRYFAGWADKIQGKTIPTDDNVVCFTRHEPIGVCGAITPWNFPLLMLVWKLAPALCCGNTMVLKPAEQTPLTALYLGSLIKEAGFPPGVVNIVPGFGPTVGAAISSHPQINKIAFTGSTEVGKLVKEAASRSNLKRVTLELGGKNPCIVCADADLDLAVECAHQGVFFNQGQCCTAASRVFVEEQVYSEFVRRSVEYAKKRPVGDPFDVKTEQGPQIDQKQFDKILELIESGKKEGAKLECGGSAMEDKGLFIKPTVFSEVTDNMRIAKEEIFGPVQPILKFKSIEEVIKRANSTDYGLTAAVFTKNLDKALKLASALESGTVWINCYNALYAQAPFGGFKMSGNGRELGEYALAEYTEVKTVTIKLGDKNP
From the text: as §1, §2

Row | probe fluorescence intensity (normalized) (ALDH1A1; listed as probe A) | probe fluorescence intensity (normalized) (ALDH1A2; listed as probe A) | probe fluorescence intensity (normalized) (ALDH1A3; listed as probe A) | Compound | probe fluorescence intensity (normalized) (ALDH1A1; listed as probe B) | reduction of the fluorescence signal with ALDH1A1 compared to ALDH1A3 (ALDH1A1) | probe fluorescence intensity (normalized) (ALDH1A2; listed as probe B) | reduction of the fluorescence signal with ALDH1A2 compared to ALDH1A3 (ALDH1A2) [folds] | probe fluorescence intensity (normalized) (ALDH1A3; listed as probe B) | increase in the intensity of the fluorescent signal on addition of ALDH1A3 (ALDH1A3)
1 | – | – | – | COc1cc(/C=C/C(O)=C/C(=O)/C=C/c2ccc(OCc3cn(CCOc4ccc(C=O)cc4)nn3)c(OC)c2)ccc1O [Probe 10] | 2.886 and 2.75 and 2.685 | about 2 folds | 4.479 and 4.412 and 3.9708 | ~4 | 11.108 and 11.7869 and 9.709 | about 12 folds
2 | 4.322 and 4.415 and 4.4337 | 5.638 and 5.434 and 5.428 | 7.871 and 7.494 and 8.003 | CCOC(=O)Cn1cc(COc2ccc(/C=C/C(=O)/C=C(O)/C=C/c3ccc(O)c(OC)c3)cc2OC)nn1 [Probe 11] | – | 4 folds | – | 6 | – | ~8 folds
